Patent publication US9018248B2, “Fatty acid derivatives of catechins and methods of their use” (Genesis Group Inc., priority 2010, dated 2015)

Key:
[1] = test system: supercoiled pBR322 DNA; assay: Hydroxyl radical-induced DNA scission; conditions: 1 μM test compounds, H2O2/Fe2SO4, 37° C., 1 hour, FIG. 2
Method: For hydroxyl radical-induced DNA oxidation, 2 μL of test compounds dissolved in ethanol were added into an Eppendorf tube and the solvent was evaporated under a nitrogen stream. To the tube 2 μL of distilled water were added, followed by thorough vortexing for 1 min. The following reagents were then added to the tube in the order as stated: 2 μL of PBS (pH7.4), 2 μL of supercoiled pBR322 DNA, 2 μL of H2O2 and 2 μL of Fe2SO4. The mixture (10 μL) containing 1 μM test compounds, 0.1M PBS, 10 μg/ml DNA, 0.2 mM H2O2 and 0.1 mM Fe2SO4 (final concentration/assay) was incubated at 37° C. for 1 hour.
After incubation, 1 μL of loading dye (0.25% bromophenol blue/0.25% xylene cyanol/50% glycerol) was added, and the whole mixture was loaded onto an agarose gel. […] The images were analyzed using AlphaEase stand-alone software (Alpha Innotech Co., San Leandro, Calif.) and the intensity or density of the bands (obtained from densitometer) was used as the indicator of concentration of the native (supercoiled) and nicked DNA fractions. Antioxidant activity was calculated as DNA retention according to the following equation: % retention=100×(native DNAsample/native DNAblank) where, DNAsample and DNAblank are normalized concentrations of native supercoiled DNA in total DNA for sample groups and blank, respectively. […]

[2] = Reducing power (Fe3+-Fe2+ transformation); conditions: test compounds 1 mM in 95% ethanol, ascorbic acid equivalents
Method: An ORAC (Oxygen Radical Absorbance Capacity) assay was carried out using a Fluostar Optima plate reader (BMG Labtech, Durham, N.C.) equipped with an incubator and two injector pumps. A modified method for lipophilic antioxidants was followed, in which randomly methylated cyclodextrin (RMCD) was used as water solubility enhancer, as described by Huang et al, J. Agric. Food Chem., 2002, 50, 1815-1821. Trolox standards (6.25-50 μM) and samples (0.25 μM) were dissolved in acetone/water (1:1, v/v) containing 7% RMCD. Fluorescein and […] [2,2′-azobis(2-aminopropane)dihydrochloride] were used as the probe and radical generator, respectively. […] Fluorescence was measured at an excitation wavelength of 485 nm and emission of 520 nm. […] (3b) Reducing Power The reducing power of EGCG and its derivatives (compounds 1a-1c) was determined according to Oyaizu (1986). […] The content was mixed well and the absorbance was recorded at 700 nm. Higher absorbance of the reaction mixture indicates greater reducing power. […] (3c) Metal Chelation The metal chelation capacity was measured following a procedure by Decker E. A. et al., J. Agric. […] The absorbance was measured afterwards at 562 nm. A blank without ferrozine was run for each compound, since the antioxidant-Fe^2+ complex gives a colour that might interfere with the absorbance reading. […] The spectrum was recorded after 1 min. […]

SMILES	Antioxidant activity against hydroxyl radical-induced DNA scission [1]	Reducing power relative to ascorbic acid [2]
CCC=CCC=CCC=CCC=CCC=CCCCC(=O)Oc1cc(C(=O)OC2Cc3c(O)cc(O)cc3OC2c2cc(OC(=O)CCCC=CCC=CCC=CCC=CCC=CCC)c(O)c(OC(=O)CCCC=CCC=CCC=CCC=CCC=CCC)c2)cc(OC(=O)CCCC=CCC=CCC=CCC=CCC=CCC)c1O (centres unmarked) [Compound 1b]	the most potent antioxidant among all	
O=C(O[C@@H]1Cc2c(O)cc(O)cc2O[C@@H]1c1cc(O)c(O)c(O)c1)c1cc(O)c(O)c(O)c1 [EGCG, Epigallocatechin gallate, reference compound]		highest reducing power
